In one assay the target is T1, serotonin 1A receptor (Rattus norvegicus, UniProt P19327).
T1 construct: To the receptor fraction of the hippocampus were added a test compound and 0.5 nM of [^3H]; 8-hydroxy-dipropylaminotetralin; from tissue; host or cells: SD rat hippocampus, membrane (receptor) fraction
T1 sequence (P19327 1-422): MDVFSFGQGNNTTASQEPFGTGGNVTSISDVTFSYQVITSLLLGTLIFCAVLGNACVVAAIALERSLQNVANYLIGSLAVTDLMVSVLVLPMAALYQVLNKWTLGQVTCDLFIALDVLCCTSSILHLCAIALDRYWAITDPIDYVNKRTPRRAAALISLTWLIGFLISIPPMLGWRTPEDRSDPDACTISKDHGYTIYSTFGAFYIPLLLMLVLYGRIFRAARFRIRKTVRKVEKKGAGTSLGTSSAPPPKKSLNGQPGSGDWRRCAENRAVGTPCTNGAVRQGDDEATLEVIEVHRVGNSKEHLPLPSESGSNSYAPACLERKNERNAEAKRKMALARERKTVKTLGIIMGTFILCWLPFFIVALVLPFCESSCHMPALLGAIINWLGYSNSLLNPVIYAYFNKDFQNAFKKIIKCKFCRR
Kind of assay: Binding test on [3H] 8-hydroxy-dipropylaminotetralin (serotonin 1A receptor). Conditions: [3H] 8-OH-DPAT 0.5 nM, receptor fraction of rat hippocampus; read-out: 5HT1a.

A further assay deals with serotonin 2 receptor (Rattus norvegicus, UniProt P14842). The assay can be described thus: Binding test on [3H] ketanserin (serotonin 2 receptor). Conditions: [3H] ketanserin 0.3 nM, receptor fraction of rat cerebral cortex; read-out: 5HT2.

Structures are written as SMILES. pKi: −log10 of the molar value.

Sequence of serotonin 2 receptor (P14842 whole entry): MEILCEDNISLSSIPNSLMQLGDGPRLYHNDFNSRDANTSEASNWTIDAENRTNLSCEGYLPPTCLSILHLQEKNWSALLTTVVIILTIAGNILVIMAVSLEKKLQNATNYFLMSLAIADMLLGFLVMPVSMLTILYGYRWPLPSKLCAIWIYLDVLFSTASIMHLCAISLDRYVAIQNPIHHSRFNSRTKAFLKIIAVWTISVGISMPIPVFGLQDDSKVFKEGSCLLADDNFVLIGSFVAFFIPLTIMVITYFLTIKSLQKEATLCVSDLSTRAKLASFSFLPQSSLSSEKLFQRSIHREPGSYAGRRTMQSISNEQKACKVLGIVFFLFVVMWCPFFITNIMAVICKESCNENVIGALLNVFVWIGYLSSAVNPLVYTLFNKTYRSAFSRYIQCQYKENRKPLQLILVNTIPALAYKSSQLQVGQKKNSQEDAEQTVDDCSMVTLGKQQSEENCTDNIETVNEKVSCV

As to `CN(C)Cc1ccc2c(c1)N(C1CCN(CCc3ccc(F)cc3)CC1)CC2` [Example 200, 1-[1-(4-fluorophenethyl)piperidin-4-yl]-6-N,N-dimethylaminomethylindoline], the results for the pKi at serotonin 1A receptor and at serotonin 2 receptor were 8.32 and 6.63, respectively.
Take `OCCOc1cccc(CCN2CCC(N3CCc4ccccc43)CC2)c1` [Example 43, 1-{3-[(2-hydroxyethoxy)phenethyl]piperidin-4-yl}indoline]: the pKi is 8.38 at serotonin 1A receptor and 7.42 on serotonin 2 receptor.
For `O=C(NCCN1CCC(N2CCc3ccccc32)CC1)c1ccc(F)cc1` [Example 75, 1-[1-(4-fluorobenzamido)ethylpiperidin-4-yl]indoline], in that order: 8.44 and 7.52.
For `CC(C)C(=O)NCc1ccc2c(c1)N(C1CCN(CCc3ccc(F)cc3)CC1)CC2` [Example 158, 1-[1-(4-fluorophenethyl)piperidin-4-yl]-6-isobutyrylaminomethylindoline] the same measures were 8.09 and 9.80.
For `Fc1ccc(CCN2CCC(N3CCc4ccc(Cn5cccc5)cc43)CC2)cc1` [Example 210, 1-[1-(4-fluorophenethyl)piperidin-4-yl]-6-(pyrrol-1-yl)methylindoline], in that order: 8.60 and 8.31.
For the compound `CCN1CCC(CN2CC(Cc3ccc(OC)cc3)c3ccccc32)CC1` (stereo not drawn) [Example 243, 1-[(1-ethylpiperidin-4-yl)methyl]-3-(4-methoxybenzyl)indoline], the pKi on serotonin 1A receptor was less than 6.70; on serotonin 2 receptor, 7.28.
For `CC(O)c1ccc(CCN2CCC(N3CCc4ccccc43)CC2)cc1` (stereo not drawn) [Example 25, 1-{4-[(1-hydroxyethyl)phenethyl]piperidin-4-yl}indoline] the same measures were 8.08 and 7.88.
For `CC(C)CNC(=O)Cc1ccc2c(c1)N(C1CCN(CCc3ccc(F)cc3)CC1)CC2` [Example 152, 1-[1-(4-fluorophenethyl)piperidin-4-yl]-6-(isobutylcarbamoylmethyl)indoline], in that order: 7.79 and 9.57.
Take `OCc1ccc2c(c1)N(C1CCN(CCc3ccc(F)cc3)CC1)CC2` [Example 136, 1-[1-(4-fluorophenethyl)piperidin-4-yl]-6-hydroxymethylindoline]: the pKi is 8.47 at serotonin 1A receptor and 8.21 on serotonin 2 receptor.
As to `COc1ccc(CCN2CCC(C3CCc4ccccc43)CC2)cc1` (stereo not drawn) [Example 249, 1-[1-(4-methoxyphenethyl)piperidin-4-yl]indan], the pKi was 8.68 at serotonin 1A receptor and 7.69 at serotonin 2 receptor.
For `CC(C)(O)c1ccc2c(c1)N(C1CCN(CCc3ccc(F)cc3)CC1)CC2` [Example 139, 1-[1-(4-fluorophenethyl)piperidin-4-yl]-6-(1-hydroxy-1-methylethyl)indoline], in that order: 8.64 and 8.06.
As for `CCCNC(=O)Cc1ccc2c(c1)N(C1CCN(CCc3ccc(F)cc3)CC1)CC2` [Example 150, 1-[1-(4-fluorophenethyl)piperidin-4-yl]-6-(n-propylcarbamoylmethyl)indoline], the pKi is 7.89 on serotonin 1A receptor and 9.80 on serotonin 2 receptor.
Regarding `CS(=O)(=O)Oc1ccc2c(c1)N(C1CCN(CCc3ccc(F)cc3)CC1)CC2` [Example 122, 1-[1-(4-fluorophenethyl)piperidin-4-yl]-6-methanesulfonyloxyindoline], the pKi on serotonin 1A receptor was 9.70; at serotonin 2 receptor, 7.82.
As to `N#Cc1ncc(CCN2CCC(N3CCc4ccccc43)CC2)s1` [Example 66], the pKi on serotonin 1A receptor was 7.29; on serotonin 2 receptor, 7.07.
For `CCCC(=O)NCc1ccc2c(c1)N(C1CCN(CCc3ccc(F)cc3)CC1)CC2` [Example 157, 1-[1-(4-fluorophenethyl)piperidin-4-yl]-6-(n-butyryl)aminomethylindoline], in that order: 8.39 and 9.74.
For `Fc1cc(F)cc(CCN2CCC(N3CCc4ccccc43)CC2)c1` [Example 12, 1-[1-(3,5-difluorophenethyl)piperidin-4-yl]indoline] the same measures were 8.07 and 7.79.
For `Fc1ccc(CCN2CCC(=C3CCc4cccnc43)CC2)cc1` [Example 256, 7-[1-(4-fluorophenethyl)piperidin-4-ylidene]-5,6-dihydropyrindine], in that order: 9.40 and 7.92.
Take `CCC(=O)NCc1ccc2c(c1)N(C1CCN(CCc3ccc(F)cc3)CC1)CC2` [Example 156, 1-[1-(4-fluorophenethyl)piperidin-4-yl]-6-propionylaminomethylindoline]: the pKi at serotonin 1A receptor is 8.11; at serotonin 2 receptor it was 8.59.
Consider `FC(F)(F)c1ccc(CCN2CCC(N3CCc4ccccc43)CC2)cc1` [Example 27, 1-[1-(4-trifluoromethylphenethyl)piperidin-4-yl]indoline], for which the results for the pKi on serotonin 1A receptor and on serotonin 2 receptor were less than 6.70 and 7.54, respectively.
`COc1cccc2c1N(C1CCN(CCc3ccc(F)cc3)CC1)CC2` [Example 107, 1-[1-(4-fluorophenethyl)piperidin-4-yl]-7-methoxyindoline]: the figures for the pKi on serotonin 1A receptor and at serotonin 2 receptor were 8.11 and 8.77, respectively.
For the compound `Nc1ccc(CCN2CCC(N3CCc4ccccc43)CC2)cc1` [Example 30, 1-[1-(4-aminophenethyl)piperidin-4-yl]indoline], the pKi on serotonin 1A receptor is 7.66; on serotonin 2 receptor it was 7.80.
With `N#Cc1ccc(CCN2CCC(N3CCc4ccccc43)CC2)cc1` [Example 21, 1-[1-(4-cyanophenethyl)piperidin-4-yl]indoline], the pKi is 8.72 on serotonin 1A receptor and 7.37 on serotonin 2 receptor.
For `O=C(Cc1ccc2c(c1)N(C1CCN(CCc3ccc(F)cc3)CC1)CC2)N1CCCC1` [Example 155, 1-[1-(4-fluorophenethyl)piperidin-4-yl]-6-(tetramethylenecarbamoylmethyl)indoline], in that order: 7.83 and 8.88.
For `COc1ccc(CCN2CCC(N3CCc4ccc(Cl)nc43)CC2)cc1` [Example 263, 1-[1-(4-methoxyphenethyl)piperidin-4-yl]-6-chloro-7-azaindoline], in that order: 9.34 and less than 6.70.
In the case of `COc1cccc2c1CCN2C1CCN(CCc2ccc(F)cc2)CC1` [Example 105, 1-[1-(4-fluorophenethyl)piperidin-4-yl]-4-methoxyindoline], the values for the pKi on serotonin 1A receptor and at serotonin 2 receptor were less than 6.70 and 7.76, respectively.
In the case of `CCN1CCC(N2CCc3ccc(NS(=O)(=O)c4ccc(F)cc4)cc32)CC1` [Example 238, 1-(1-ethylpiperidin-4-yl)-6-(4-fluorobenzenesulfonylamino)indoline], the pKi on serotonin 1A receptor is 7.06; on serotonin 2 receptor, less than 6.70.
For `Fc1ccc(CCN2CCC(n3ccc4ccc(F)cc43)CC2)cc1` [Example 333, 1-[1-(4-fluorophenethyl)piperidin-4-yl]-6-fluoroindole], in that order: 8.97 and less than 7.70.
For `CS(=O)(=O)c1ccc(CCN2CCC(N3CCc4ccccc43)CC2)cc1` [Example 28, 1-[1-(4-methanesulfonylphenethyl)piperidin-4-yl]indoline] the same measures were 7.33 and 8.09.
For `NCc1ccc2c(c1)N(C1CCN(CCc3ccc(F)cc3)CC1)CC2` [Example 132, 1-[1-(4-fluorophenethyl)piperidin-4-yl]-6-aminomethylindoline], in that order: 8.68 and 7.85.
Regarding `Fc1ccc(CCN2CCC(N3CCc4ccc(CC5CCNCC5)cc43)CC2)cc1` [Example 167, 1-[1-(4-fluorophenethyl)piperidin-4-yl]-6-[(piperidin-4-yl)methyl]indoline], the pKi at serotonin 1A receptor is 8.19; at serotonin 2 receptor, 7.73.
For the compound `O/N=C/c1ccc2c(c1)N(C1CCN(CCc3ccc(F)cc3)CC1)CC2` [Example 131, 1-[1-(4-fluorophenethyl)piperidin-4-yl]-6-hydroxyiminomethylindoline], the pKi is 9.77 at serotonin 1A receptor and 7.82 on serotonin 2 receptor.
For `CN1CCC(Cc2ccc3c(c2)N(C2CCN(CCc4ccc(F)cc4)CC2)CC3)CC1` [Example 170, 1-[1-(4-fluorophenethyl)piperidin-4-yl]-6-[(1-methylpiperidin-4-yl)methyl]indoline], in that order: 7.32 and 7.79.
For `Fc1ccc(CCN2CCC(N3CCc4ccc(Cc5cccnc5)cc43)CC2)cc1` [Example 177, 1-[1-(4-fluorophenethyl)piperidin-4-yl]-6-[1-(3-pyridyl)methyl]indoline], in that order: 9.60 and 9.04.
For `Fc1ccc(CCN2CCC(CCN3CCc4ccccc43)CC2)cc1` [Example 17, 1-{2-[1-(4-fluorophenethyl)piperidin-4-yl]ethyl}indoline], in that order: 7.72 and 7.79.
For `CC(=O)Nc1ccc(CCN2CCC(N3CCc4ccccc43)CC2)cc1` [Example 32, 1-[1-(4-acetamidophenethyl)piperidin-4-yl]indoline], the pKi at serotonin 1A receptor and on serotonin 2 receptor was 7.52 throughout.
Consider `c1ccc2c(c1)CCN2C1CCN(CCc2ccsc2)CC1` [Example 59, 1-{1-[2-(3-thienyl)ethyl]piperidin-4-yl}indoline], for which the pKi on serotonin 1A receptor is 7.92; at serotonin 2 receptor, 7.54.
